Article PMC9762708 (Annals of Surgery, 2022)
Residues, ends and D or L forms follow the SMILES beside them.

Key:
Assay in all cases: MIC of phase IIb clinical isolates
Type in all cases: cell-based
Klebsiella pneumoniae = details: 45 strains
Escherichia coli = details: 22 strains
[1] = system: Staphylococcus epidermidis; details: 126 strains
Enterococcus faecalis = details: 25 strains
Enterobacter cloacae = details: 63 strains
Pseudomonas aeruginosa = details: 74 strains
Acinetobacter baumannii = details: 31 strains
[2] = system: Staphylococcus haemolyticus; details: 23 strains
Staphylococcus aureus = details: 320 strains

Row | Structure (SMILES) | Strains Resistant to Control Antibiotics (Klebsiella pneumoniae) | Strains Resistant to Control Antibiotics (Escherichia coli) | Strains Resistant to Control Antibiotics [1] | Strains Resistant to Control Antibiotics (Enterococcus faecalis) | Strains Resistant to Control Antibiotics (Enterobacter cloacae) | Strains Resistant to Control Antibiotics (Pseudomonas aeruginosa) | Strains Resistant to Control Antibiotics (Acinetobacter baumannii) | Strains Resistant to Control Antibiotics [2] | Strains Resistant to Control Antibiotics (Staphylococcus aureus) | MIC50 (Escherichia coli) | MIC90 (Escherichia coli) | MIC50 [1] | MIC90 [1] | MIC50 (Enterococcus faecalis) | MIC90 (Enterococcus faecalis) | MIC90 (Pseudomonas aeruginosa) | MIC50 [2] | MIC90 [2]
1 | CO/N=C(\C(=O)N[C@@H]1C(=O)N2C(C(=O)O)=C(CSc3nc(=O)c(=O)[nH]n3C)CS[C@H]12)c1csc(N)n1 [Ceftriaxone, ceftriaxone] | 18 (40.0) n (%) | 13 (59.1) n (%) | No | 25 (100) n (%) | 8 n (%) | 74 (100) n (%) | 14 (45.2) n (%) | No |  |  |  |  |  |  |  |  |  | 
2 | C[C@@H](O)[C@H]1C(=O)N2C(C(=O)O)=C(SCCN=CN)C[C@H]12 [Imipenem, imipenem] | 1 n (%) | 0 n (%) |  |  | 8 n (%) | 2 n (%) | 15 (48.4) n (%) |  |  |  |  |  |  |  |  |  |  | 
3 | C[C@H]1COc2c(N3CCN(C)CC3)c(F)cc3c(=O)c(C(=O)O)cn1c23 [Levofloxacin, levofloxacin] | 14 (31.1) n (%) | 13 (59.1) n (%) | 41 (32.5) n (%) | 2 n (%) | 2 n (%) | 8 n (%) | 5 n (%) | 14 (60.9) n (%) | 56 (17.5) n (%) |  |  |  |  |  |  |  |  | 
4 | CC[C@H](C)[C@H](NC(=O)[C@H](C)NC(=O)[C@H](CCCCN)NC(=O)[C@H](CC(C)C)NC(=O)[C@H](C)NC(=O)[C@@H](NC(=O)[C@H](Cc1c[nH]cn1)NC(=O)[C@H](CC(C)C)NC(=O)[C@@H](NC(=O)[C@@H](NC(=O)[C@H](CCCCN)NC(=O)[C@H](C)NC(=O)[C@H](C)NC(=O)[C@H](CO)NC(=O)[C@H](CCCCN)NC(=O)[C@H](Cc1ccccc1)NC(=O)[C@@H](NC(=O)[C@H](CCCCN)NC(=O)[C@H](CC(C)C)NC(=O)[C@H](Cc1ccccc1)NC(=O)[C@H](CO)NC(=O)[C@H](CCCCN)NC(=O)[C@H](Cc1c[nH]c2ccccc12)NC(=O)[C@H](CCCCN)NC(C)=O)[C@@H](C)O)[C@@H](C)O)C(C)C)[C@@H](C)O)C(=O)N[C@@H](CO)C(=O)N[C@@H](CO)C(N)=O [PL-5, Peceleganan] (Ac-KWKSFLKTFKSAAKTVLHTALKAISS-NH2; N-terminus and C-terminus assumed) |  |  |  |  |  |  |  |  |  | 8 µg/mL | 16 µg/mL | 4 µg/mL | 4 µg/mL | 64 µg/mL | 128 µg/mL | 8 µg/mL | 2 µg/mL | 8 µg/mL
5 | CN[C@H](CC(C)C)C(=O)N[C@H]1C(=O)N[C@@H](CC(N)=O)C(=O)N[C@H]2C(=O)N[C@H]3C(=O)N[C@H](C(=O)N[C@H](C(=O)O)c4cc(O)cc(O)c4-c4cc3ccc4O)[C@H](O)c3ccc(c(Cl)c3)Oc3cc2cc(c3O[C@@H]2O[C@H](CO)[C@@H](O)[C@H](O)[C@H]2O[C@H]2C[C@](C)(N)[C@H](O)[C@H](C)O2)Oc2ccc(cc2Cl)[C@H]1O [Vancomycin, vancomycin] |  |  | 0 n (%) | 0 n (%) |  |  |  | 0 n (%) | 0 n (%) |  |  |  |  |  |  |  |  | 
